# Reference: PubChem BioAssay (NCI)
#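 Test compounds were applied to cells in 96-well plates for 48 hours at 5 doses. At the GI50, growth is halved. TGI: concentration producing complete growth inhibition.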
# What was measured:
# Test in all cases: NCI anticancer screen, dose series, 48 h
# NCI-H23 lung = system: NCI-H23 lung
# SK-MEL-5 melanoma = system: SK-MEL-5 melanoma
# PC-3 prostate = system: PC-3 prostate
# HCC-2998 colon = system: HCC-2998 colon
# CAKI-1 renal = system: CAKI-1 renal
# KM12 colon = system: KM12 colon
# HOP-92 NSCLC = system: HOP-92 NSCLC
# OVCAR-4 ovarian = system: OVCAR-4 ovarian
# OVCAR-8 ovarian = system: OVCAR-8 ovarian
# UACC-62 melanoma = system: UACC-62 melanoma
# SNB-19 CNS = system: SNB-19 CNS
# SK-MEL-28 melanoma = system: SK-MEL-28 melanoma
# LOX IMVI melanoma = system: LOX IMVI melanoma
# K-562 leukemia = system: K-562 leukemia
# MDA-MB-231 breast = system: MDA-MB-231 breast
# MDA-MB-435 = system: MDA-MB-435
# NCI-H522 lung = system: NCI-H522 lung
# RPMI-8226 leukemia = system: RPMI-8226 leukemia
# MDA-MB-468 breast = system: MDA-MB-468 breast
# EKVX NSCLC = system: EKVX NSCLC
# OVCAR-5 ovarian = system: OVCAR-5 ovarian
# HCT-15 colon = system: HCT-15 colon
# NCI-H226 lung = system: NCI-H226 lung
# SF-539 CNS = system: SF-539 CNS
# U251 CNS = system: U251 CNS
# BT-549 breast = system: BT-549 breast
# MALME-3M melanoma = system: MALME-3M melanoma
# A549 NSCLC = system: A549 NSCLC
# DU-145 prostate = system: DU-145 prostate
structure (smiles),measurement,setting,value
CC1(C)CC[C@]2(C(=O)Nc3ccc(F)cc3)CC[C@]3(C)C(=CCC4[C@@]5(C)C[C@@H](O)[C@H](O)[C@@](C)(CO)C5CC[C@]43C)C2C1 (some centres not stated),TGI,NCI-H23 lung,39.3 µM
same,GI50,SK-MEL-5 melanoma,14.7 µM
same,TGI,SK-MEL-5 melanoma,27.8 µM
same,GI50,PC-3 prostate,12.8 µM
same,TGI,PC-3 prostate,38.5 µM
same,GI50,HCC-2998 colon,16.7 µM
same,TGI,HCC-2998 colon,31.1 µM
same,GI50,CAKI-1 renal,11.1 µM
same,TGI,CAKI-1 renal,39.6 µM
same,GI50,KM12 colon,17.5 µM
same,TGI,KM12 colon,35.7 µM
same,GI50,HOP-92 NSCLC,13.2 µM
same,TGI,HOP-92 NSCLC,29 µM
same,GI50,OVCAR-4 ovarian,16.8 µM
same,TGI,OVCAR-4 ovarian,46.5 µM
same,GI50,OVCAR-8 ovarian,29 µM
same,TGI,OVCAR-8 ovarian,> 100 µM
same,GI50,UACC-62 melanoma,9.17 µM
same,TGI,UACC-62 melanoma,21.9 µM
same,GI50,SNB-19 CNS,23.8 µM
same,TGI,SNB-19 CNS,> 100 µM
same,GI50,SK-MEL-28 melanoma,15.6 µM
same,TGI,SK-MEL-28 melanoma,31.6 µM
same,GI50,LOX IMVI melanoma,15.6 µM
same,TGI,LOX IMVI melanoma,30.7 µM
same,GI50,K-562 leukemia,17.8 µM
same,TGI,K-562 leukemia,62.8 µM
same,GI50,MDA-MB-231 breast,14.2 µM
same,TGI,MDA-MB-231 breast,28.7 µM
same,GI50,MDA-MB-435,14.4 µM
same,TGI,MDA-MB-435,28.8 µM
same,GI50,NCI-H522 lung,17.6 µM
same,TGI,NCI-H522 lung,40.1 µM
same,GI50,RPMI-8226 leukemia,14.9 µM
same,TGI,RPMI-8226 leukemia,64.6 µM
same,GI50,MDA-MB-468 breast,13.5 µM
same,TGI,MDA-MB-468 breast,31.3 µM
same,GI50,EKVX NSCLC,17.2 µM
same,TGI,EKVX NSCLC,47.2 µM
same,GI50,OVCAR-5 ovarian,14.6 µM
same,TGI,OVCAR-5 ovarian,28.4 µM
same,GI50,HCT-15 colon,13.2 µM
same,TGI,HCT-15 colon,27.4 µM
same,GI50,NCI-H226 lung,13.5 µM
same,TGI,NCI-H226 lung,34.3 µM
same,GI50,SF-539 CNS,14.8 µM
same,TGI,SF-539 CNS,28.3 µM
same,GI50,U251 CNS,14.9 µM
same,TGI,U251 CNS,30 µM
same,GI50,BT-549 breast,13.1 µM
same,TGI,BT-549 breast,26.8 µM
same,GI50,MALME-3M melanoma,16 µM
same,TGI,MALME-3M melanoma,29.9 µM
same,GI50,A549 NSCLC,29.5 µM
same,TGI,A549 NSCLC,> 100 µM
same,GI50,DU-145 prostate,20.1 µM
same,TGI,DU-145 prostate,45.6 µM
